Laboratory results: patent US11541065B2, “Compositions and methods for treating brain injury” (UNM RAINFOREST INNOVATIONS, priority 2018, dated 2023)

Experiments:
Format in all cases: cell-based
COX2 = COX2 protein level in rat neuronal cultures (immunoblot); details: for effect on homocysteine-induced increase in COX2 protein level: rat neurons, L-homocysteine 50 μM four hours, with MK801 10 μM, NVP-AAM077 30 nM, Ro 25-6981 1 μM, PD98059 15 μM, SB203580 5 μM or Bengamide B 500 nM
Procedure: Equal protein from total cell lysates obtained from rat and mice neuronal cultures were resolved in 7.5% SDS-PAGE, and subjected to immunoblotting procedure as described earlier (Poddar and Paul, 2009, J Neurochem 110:1095-1106). Blots were analyzed with antibodies as described in each experiment. All primary antibodies (anti-COX2, anti-B-tubulin) and secondary-horse radish peroxidase conjugated antibody concentrations were used according to recommendations provided by the manufacturer. Signals from immune complexes in the blots were developed using West Pico supersignal chemiluminescence reagents and then captured on X-ray films. Densitometric analysis of the images was performed using the Image J software.
Rat and mice neuronal cultures were washed with PBS (pH 7.4), containing sodium pyrophosphate and sodium vanadate as phosphatase inhibitors, and harvested in SDS sample buffer (Laemmli, 1970, Nature 227:680-685). Equal protein from total cell lysates, estimated using BCA kit, was resolved by SDS-PAGE (7.5%) followed by western blotting on PVDF membranes. Immunoblot analysis was performed by first blocking with 5% non-fat dry milk for 1 h at room temperature followed by incubation with either COX2 immunoblot analysis (Poddar and Paul, 2009, J Neurochem 110:1095-1106) as described in each experiment. All primary antibodies and horseradish peroxidase conjugated secondary antibodies were used according to manufacturer's recommendations. Signals from immune complexes in the blots were developed using West Pico supersignal chemiluminescence reagents and then captured on X-ray films. Densitometric analysis of the images was performed using the NIH Image J software.

[Ca^2+]i = Intracellular Ca^2+ by Fura2 imaging, rat neuronal cultures; details: for effect on homocysteine-induced increase in Fura2 fluorescence ratio and [Ca^2+]i: rat neurons, somata and processes, L-homocysteine 50 μM 60 minutes, with EGTA 2 mM, DL-AP5 200 μM, NVP-AAM077 30 nM or Ro 25-6981 1 μM
Procedure: Embryos obtained from pregnant Sprague Dawley rats (16-17-day gestation) or wild type (WT) and GluN2A KO mice (15-16-day gestation) were used to establish primary cortical neuronal cultures as previously described (Poddar and Paul, 2009, J Neurochem 110:1095-1106; Poddar and Paul, 2013, J Neurochem 124:558-570; Poddar et al., 2017, J Neurochem 142:560-573). Neurons were grown on either (a) 35-mm culture dishes (MatTek Corp., Ashland, Mass.) coated overnight with poly-D-lysine (50 μg/ml) and laminin (10 μg/ml) for Ca^2+ imaging studies, (b) poly-D-lysine-coated 60 mm dishes (Corning BIOCOAT, Corning Inc., Corning, N.Y.) for biochemical studies, or (c) poly-D-lysine-coated 4-well culture slides (Corning BIOCOAT, Corning Inc., Corning, N.Y.) for cell death assay. Neurons were maintained in culture for 12-13 days before experiment. The cells were treated with freshly prepared L-homocysteine (50 μM) in Hank's balanced salt solution containing 50 μM of glycine (Lipton et al., 1997, Proceedings of the National Academy of Sciences of the United States of America 94:5923-5928; Poddar and Paul, 2009, J Neurochem 110:1095-1106; Poddar and Paul, 2013, J Neurochem 124:558-570; Poddar et al., 2017, J Neurochem 142:560-573) for the specified time periods. In a parallel series of experiments, cells were treated with glutamate (50 μM) for the specified time periods. Cells were then processed for live cell imaging, immunoblotting or cell death assay. In some experiments EGTA, DL-AP5, NVP-AAM077, Ro 25-6981 or PD98059 was added 15 minutes prior to L-homocysteine or glutamate treatment.
[Ca^2+]i in neurons was determined using the fluorescent indicator, Fura2-AM. Briefly, neurons were loaded with Fura2 (10 μM) in phenol red free Hank's balanced salt solution for 30 minutes at 37° C. followed by post-incubation for 20 minutes (Paul, S. and Connor, J. A., 2010, J Neurochem 114:1107-1118). Time lapse live cell imaging was performed following stimulation using a Nikon Ti Eclipse inverted microscope equipped with Tokai Hit stage top incubator maintained at 37° C. and infused with 95:5% air:CO2 mixture. Fields of 5-8 cells were imaged using a 40× oil immersion objective (Nikon). Fluorescence excitations (340 and 380 nm) were provided with Sutter LB-LS/30 Lambda xenon arc lamp and fluorescence emissions (510 nm) were captured using a CCD camera (Teledyne Photometries, Tucson, Ariz.). NIS Elements AR software was used for data acquisition and analysis. Ratiometric data (340/380 nm) from regions of interest were corrected for background and converted into estimates of [Ca^2+]i. as described previously (Paul, S. and Connor, J. A., 2010, J Neurochem 114:1107-1118) using the equation developed earlier (Grynkiewicz et al., 1985, J Biol Chem 260:3440-3450). Maximum and minimum fluorescence ratios were determined from Fura2 loaded cells treated with ionomycin (5 μM) in calcium containing medium (2 mM) or in calcium free media with EGTA (0.5 mM).

MCP-1 = MCP-1 expression and release from neuron cultures (enzyme immunoassay)
Procedure: For measurement of cPLA2 activity and MCP-1 levels in cell lysates, neuronal lysates were prepared by harvesting neurons in ice-cold Tris-buffered saline (pH 7.4) containing phosphatase inhibitor, sonicated three times in five-second bursts and placed on ice (two minutes) between each burst of sonication. The lysed cell suspensions were centrifuged at 10,000 rpm (10 minutes) and the supernatant was collected in another tube. Equal amounts of protein from the supernatant were processed for cPLA2 activity assay according to the manufacturer's protocol. Equal protein from the lysates were also used to estimate MCP-1 levels using an MCP-1 ELISA kit.
For measurement of PGE2 levels and MCP-1 levels released from neurons, culture medium was collected from each experimental plate and centrifuged at 1000 rpm for five minutes to remove cellular debris. Equal volume (100 μl) of the supernatant from each sample was used to determine PGE2 level using the PGE2 ELISA kit according to the manufacturer's instructions.

Compound	effect on homocysteine-induced increase in COX2 protein level (COX2)	effect on homocysteine-induced increase in Fura2 fluorescence ratio and [Ca^2+]i ([Ca^2+]i)	effect on homocysteine-induced expression and release of MCP-1 (MCP-1; L-homocysteine 50 μM four hours, with DL-AP5 200 μM or NVP-AAM077 30 nM)	COX2 protein levels (COX2; cortical neurons, L-homocysteine 50 μM, time course, alone)	maximum increase in [Ca^2+]i vs control cells ([Ca^2+]i; rat neurons (soma), L-homocysteine 50 μM, by 60 minutes)	expression and release of MCP-1 from neurons (MCP-1; L-homocysteine 50 μM, 0, two and four hours, alone)
C[C@H](NC(c1cccc2[nH]c(=O)c(=O)[nH]c12)P(=O)(O)O)c1ccc(Br)cc1 (stereo partly drawn) [NVP-AAM077, ({[(1S)-1-(4-bromophenyl)ethyl]amino}-(2,3-dioxo-1,4-dihydroquinoxalin-5-yl)methyl)phosphonic acid]	blocks homocysteine-induced increase in COX2 protein expression	attenuates homocysteine-induced increase in Fura2 fluorescence ratio and [Ca^2+]i	attenuates the expression and release of MCP-1			
C[C@@H](CN1CCC(Cc2ccccc2)CC1)[C@@H](O)c1ccc(O)cc1 [Ro 25-6981]	fails to ameliorate homocysteine-induced increase in COX2 protein level	fails to attenuate homocysteine-induced [Ca^2+]i increase				
N[C@@H](CCS)C(=O)O [L-homocysteine]				progressive increase in COX2 protein levels	approximately 7.2 folds	progressive increase in expression and release
